Source: patent US6703237B2, “Methods and formulations for mediating adeno-associated virus (AAV) attachment and infection and methods for purifying AAV” (priority 1998, dated 2004)

Experiments:
rAAV-LacZ [1] = test: Inhibition of rAAV-LacZ transduction of HeLa cells by soluble GAGs; format: cell-based, AAV-2
Method: FIGS. 1A and 1B illustrate the inhibition of AAV infection by various glycosaminoglycans. In the data shown in FIG. 1A, rAAV was incubated with the indicated concentrations of heparin (solid squares), chondroitin sulfate B (dermatan sulfate) (open circles), chondroitin sulfate A (open diamonds) or chondroitin sulfate C (open triangles) for 1 hour at 37° C. prior to a 1-hour adsorption period of the virus/GAG mixture to HeLa cells for infection. β-galactosidase activity was assayed 44 hours post-infection using a Galacto-Light Plus kit (Tropix Inc.), and measured in a luminometer. Each point denotes the average % decrease in Relative Light Units (RLU) per ug of protein relative to the maximum RLU/μg protein obtained in experiments without GAG. In the data shown in FIG. 1B, HeLa cells were preincubated with increasing concentrations of heparin at 37° C. for 1 hour. After thorough washing, cells were infected with rAAV as described above. Data points represent the average % maximum RLU/ug protein obtained without heparin preincubation.
rAAV-LacZ at an MOI of 2 was incubated in DMEM-H media in the presence or absence of indicated soluble GAGs at 1.0, 5.0, 10, 20, 30 μg/ml for 1 h at 37° C. For infection, rAAV-LacZ or the virus/GAG mixture was incubated with 2×10^5 HeLa cells for 1 h at 37° C. in a 5% CO2 chamber. […]

3H-wt AAV-2 = test: Inhibition of 3H-wt AAV-2 binding to HeLa cells by soluble GAGs; details: 90 min at 4° C.
Method: FIG. 2 illustrates that soluble heparin inhibits binding of AAV to the cell surface. After pre-incubation of 3H-wt AAV-2 with increasing concentrations of the indicated GAGs or the GAG analogue dextran sulfate, labeled virus was adsorbed to HeLa cells for 90 minutes at 4° C. Unbound virus was removed by three washes with ice cold binding buffer and radioactivity was quantitated as described in methods. Data is represented as the average % inhibition relative to the CPM bound in the absence of soluble GAG.
(§1) For direct binding assays, ^3H-labeled wtAAV-2 was incubated with cells either attached to plates or in suspension, as indicated, at a ratio of 4×10^11 particles/3×10^5 cells for 90 minutes at 4° C. in HBSB. Cells were then washed 3 times in ice cold HBSB to remove unbound virus, and were solubilized in 0.3 N NaOH. After neutralization with glacial acetic acid, cell-associated radioactivity was quantitated in a scintillation counter. For inhibition studies, and after enzymatic treatments, ^3H-AAV was bound to adherent HeLa cells. Binding to wild type CHO and CHO cell mutants was done with suspended cells. […] Non-specific binding was determined in the presence of 100-fold excess unlabeled wt AAV (previously dialyzed in HBS, 10% glycerol). Binding of Cy3-labeled virus was done on wild type CHO and pgsA-745 cells grown on coverslips. After fixation in 4% paraformaldehyde for 20 minutes at room temperature, cells were mounted on slides and bound Cy3 labeled virus was detected by confocal microscopy. […]
To further examine the observed specificity and to determine whether GAGs were inhibiting binding of the AAV virions to the cell surface, ^3H-wt AAV was incubated with GAGs (heparin, dermatan sulfate, chondroitin sulfate A, chondroitin sulfate C, dextran sulfate) at various concentrations. After incubation with cells, the mixture was washed and cells were solubilized to quantify bound virus. […]

[2] = test system: cell surface glycosaminoglycans of HeLa cells; test: 3H-AAV binding to HeLa cells after GAG lyase digestion of cell surface GAGs; details: maximum concentration of enzyme tested
Method: (§2) FIGS. 3A and 3B illustrate the effect of enzymatic digestion of cell surface glycosaminoglycans on AAV binding and infection. In the data shown in FIG. 3A, HeLa cells were treated with the indicated concentrations of the following GAG lyases: heparitinase (solid squares), heparinase I (open diamonds), chondroitinase ABC (open circles), or chondroitinase AC (open triangles), as described in Example 13, below. After thorough washing, the ability of AAV to bind the cell surface was assessed as described in Example 12, below. Data points represent the average % reduction in AAV binding relative to AAV binding obtained without enzymatic treatment. In the data shown in FIG. 3B, HeLa cells were treated with heparitinase or heparinase I as described herein. After thorough washing, rAAV was incubated with cells for a I hour adsorption period at 37° C. Cells were harvested 44 hours post-infection and assayed for β-galactosidase activity. Results are shown as the average % reduction in AAV transduction relative to transduction observed in the absence of enzymatic treatment. Data points represent the mean and standard deviation of experiments performed in triplicate.
as §1
GAG lyases were reconstituted in phosphate buffered saline (PBS). […] Prior to use, each enzyme was tested for activity by a standard method used to determine specific activity of GAG lyases, except that enzyme activity was monitored under the conditions used for digestion, PBS pH 7.4 at 37° C. […]
Subconfluent HeLa cells were treated with various concentrations of each specific enzyme and assessed for ^3H-AAV binding.

rAAV-LacZ [3] = test: rAAV-lacZ transduction of HeLa cells with low concentrations of heparin; format: cell-based, AAV-2; details: heparin 0.001 and 0.004 μg/mL, 48 h after infection
Method: HeLa cells were infected with rAAV-lacZ virus in the presence or absence of heparin, at the indicated concentrations, for one hour at 37° C. […] Results are reported as the mean and standard deviation of one experiment performed in triplicate.
HeLa cells were infected with rAAV-lacZ virus in the presence or absence of heparin, at concentrations of 0 μg/mL, 0.001 μg/mL, and 0.004 μg/mL, for one hour at 37° C. […] The results of this experiment are shown in FIG. 6 as the mean and standard deviation of one experiment performed in triplicate.

[4] = test system: cell surface glycosaminoglycans of HeLa cells; test: rAAV-LacZ transduction of HeLa cells after GAG lyase digestion; format: cell-based; details: for reduction of rAAV transduction compared to untreated control cells: HeLa cells treated with various concentrations of enzyme
Method: as §2
GAG lyases were reconstituted in phosphate buffered saline (PBS). For enzymatic digestion of cell surface GAGs, 3×10^4 HeLa cells were washed and incubated with the indicated concentrations of GAG lyases in PBS containing 0.1%BSA, 0.2% gelatin and 0.1% glucose (digestion buffer) for 1 hour at 37° C. in a 5% CO2 chamber. Cells were then washed four times with digestion buffer and subjected to rAAV infection as described above. Prior to use, each enzyme was tested for activity by a standard method used to determine specific activity of GAG lyases, except that enzyme activity was monitored under the conditions used for digestion, PBS pH 7.4 at 37° C. (Linhardt, (1994) Analysis of glycosaminoglycans with polysaccharide lyases, p. 17.13.17-17.13.32. in K. Janssen (ed.), Current Protocols in Molecular Biology, vol. 3. John Wiley & Sons, Inc., New York). Cells remained attached to the plate after all enzymatic treatments. […]

In the case of chondroitin sulfate B, the “inhibition of rAAV transduction (β-galactosidase activity)” value (rAAV-LacZ [1]; 30 μg/ml GAG, HeLa cells, 44 h post-infection) is reported as 71% and the “inhibition of AAV binding” value (3H-wt AAV-2; 30 μg/ml) is reported as 51%.

With chondroitinase ABC the “reduction of 3H-AAV binding to the cell surface after enzymatic treatment” value (“reduction of 3H-AAV binding” for short) [2] was “did not result in any reduction”.

For dextran sulfate, the “inhibition of AAV binding” value (3H-wt AAV-2; 30 μg/ml) was 36%.

heparin was tested, and the “inhibition of rAAV transduction after preincubation of cells” value (rAAV-LacZ [1]; HeLa cells preincubated with heparin up to 20 μg/ml, washed before infection) was “less than 20%”, the “inhibition of AAV binding” value (3H-wt AAV-2; 5 μg/ml) was 90% and the “effect on rAAV transduction (β-galactosidase, RLU/μg protein)” value (rAAV-LacZ [3]) was “enhance rAAV transduction”.

B1: chondroitinase AC: GAG lyase from Seikagagku; cleaves only chondroitin sulfate type A and C (protein, UniProt Q59288 23-700, looked up)
Chondroitinase-AC: QQTGTAELIMKRVMLDLKKPLRNMDKVAEKNLNTLQPDGSWKDVPYKDDAMTNWLPNNHLLQLETIIQAYIEKDSHYYGDDKVFDQISKAFKYWYDSDPKSRNWWHNEIATPQALGEMLILMRYGKKPLDEALVHKLTERMKRGEPEKKTGANKTDIALHYFYRALLTSDEALLSFAVKELFYPVQFVHYEEGLQYDYSYLQHGPQLQISSYGAVFITGVLKLANYVRDTPYALSTEKLAIFSKYYRDSYLKAIRGSYMDFNVEGRGVSRPDILNKKAEKKRLLVAKMIDLKHTEEWADAIARTDSTVAAGYKIEPYHHQFWNGDYVQHLRPAYSFNVRMVSKRTRRSESGNKENLLGRYLSDGATNIQLRGPEYYNIMPVWEWDKIPGITSRDYLTDRPLTKLWGEQGSNDFAGGVSDGVYGASAYALDYDSLQAKKAWFFFDKEIVCLGAGINSNAPENITTTLNQSWLNGPVISTAGKTGRGKITTFKAQGQFWLLHDAIGYYFPEGANLSLSTQSQKGNWFHINNSHSKDEVSGDVFKLWINHGARPENAQYAYIVLPGINKPEEIKKYNGTAPKVLANTNQLQAVYHQQLDMVQAIFYTAGKLSVAGIEIETDKPCAVLIKHINGKQVIWAADPLQKEKTAVLSIRDLKTGKTNRVKIDFPQQEFAGATVELK
For B1, the “reduction of 3H-AAV binding” value [2] was “did not result in any reduction”.

B2: heparitinase: GAG lyase purchased from Sigma; cleaves linkages found in heparan sulfate (protein, UniProt Q59289 25-659, looked up)
Heparin-sulfate lyase: QSSSITRKDFDHINLEYSGLEKVNKAVAAGNYDDAAKALLAYYREKSKAREPDFSNAEKPADIRQPIDKVTREMADKALVHQFQPHKGYGYFDYGKDINWQMWPVKDNEVRWQLHRVKWWQAMALVYHATGDEKYAREWVYQYSDWARKNPLGLSQDNDKFVWRPLEVSDRVQSLPPTFSLFVNSPAFTPAFLMEFLNSYHQQADYLSTHYAEQGNHRLFEAQRNLFAGVSFPEFKDSPRWRQTGISVLNTEIKKQVYADGMQFELSPIYHVAAIDIFLKAYGSAKRVNLEKEFPQSYVQTVENMIMALISISLPDYNTPMFGDSWITDKNFRMAQFASWARVFPANQAIKYFATDGKQGKAPNFLSKALSNAGFYTFRSGWDKNATVMVLKASPPGEFHAQPDNGTFELFIKGRNFTPDAGVFVYSGDEAIMKLRNWYRQTRIHSTLTLDNQNMVITKARQNKWETGNNLDVLTYTNPSYPNLDHQRSVLFINKKYFLVIDRAIGEATGNLGVHWQLKEDSNPVFDKTKNRVYTTYRDGNNLMIQSLNADRTSLNEEEGKVSYVYNKELKRPAFVFEKPKKNAGTQNFVSIVYPYDGQKAPEISIRENKGNDFEKGKLNLTLTINGKQQLVLVP
In the case of B2, the “reduction of 3H-AAV binding” value [2] is reported as 73%, the “reduction of AAV infection” value ([4]; 0.425 mIU/ml enzyme, HeLa cells) is reported as “up to 72%” and the “reduction of rAAV transduction compared to untreated control cells” value [4] is reported as 80%.

B3: heparinase: GAG lyase purchased from Sigma; cleaves linkages found in heparan sulfate (protein, UniProt Q05819 22-384, looked up)
Heparin lyase I: QQKKSGNIPYRVNVQADSAKQKAIIDNKWVAVGINKPYALQYDDKLRFNGKPSYRFELKAEDNSLEGYAAGETKGRTELSYSYATTNDFKKFPPSVYQNAQKLKTVYHYGKGICEQGSSRSYTFSVYIPSSFPDNATTIFAQWHGAPSRTLVATPEGEIKTLSIEEFLALYDRMIFKKNIAHDKVEKKDKDGKITYVAGKPNGWKVEQGGYPTLAFGFSKGYFYIKANSDRQWLTDKADRNNANPENSEVMKPYSSEYKTSTIAYKMPFAQFPKDCWITFDVAIDWTKYGKEANTILKPGKLDVMMTYTKNKKPQKAHIVNQQEILIGRNDDDGYYFKFGIYRVGNSTVPVTYNLSGYSETAR
For B3, the “reduction of 3H-AAV binding” value [2] was 66% and the “reduction of rAAV transduction compared to untreated control cells” value [4] was 80%.
